Like-named read-outs stand apart in the source and are kept apart here.
Test system: primary neuronal cultures from embryonic rat brains
Assay: Rat oscillation assay (FLIPR, neuronal calcium oscillations)
Assay type: cell-based
Method in brief: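 E18 Wistar rat cortical neurons cultured 8–10 days, loaded with 1 µM Fluo-8 AM, then kept in Mg2+-free HEPES-buffered HBSS (2 mM CaCl2, pH 7.4) to drive synchronized calcium oscillations. Fluorescence read at 1 Hz over 500 sec with or without XE-991, compound added at 250 sec; second acquisition 20 min after addition.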

SMILES	IC50 (20 min after compound addition, AUC of fluorescence, read-out: FLIPR: IC50 [nM] 20 min) [nM]	IC50 (acute phase, ratio of AUC fluorescence before and after compound addition, rat cortical neurons, Mg-free buffer, read-out: FLIPR: IC50 [nM] acute) [nM]	IC50 (Rattus norvegicus, 20 min, 20 min after compound addition, AUC of fluorescence, read-out: FLIPR: IC50 [nM] 20 min) [nM]	IC50 (Rattus norvegicus, Cortical neurone, acute phase, ratio of AUC fluorescence before and after compound addition, rat cortical neurons, Mg-free buffer, read-out: FLIPR: IC50 [nM] acute) [nM]
O=C(NCc1cccc(C(F)(F)F)c1)NC1CC(C(F)F)C1 (single isomer, unassigned) [Example 53, 1-(3-(Difluoromethyl)Cyclobutyl)-3-(3-(Trifluoromethyl)Benzyl)Urea]	295	168	–	–
O=C(NCc1cccc(C(F)(F)F)c1)NC12CC(C(F)F)(C1)C2 [Example 47, 1-(3-Difluoromethyl-Bicyclo[1.1.1]Pent-1-yl)-3-(3-Trifluoromethyl-Benzyl)-Urea]	–	–	160	118

Source: US20230303486A1, “CYCLOBUTYL-UREA DERIVATIVES” (Idorsia Pharmaceuticals Ltd, priority 2020, published 2023)
